In US9969710B2, “Heteroaryl compounds as IRAK inhibitors and uses thereof” (Merck Patent GmbH, priority 2015, dated 2018) one finds IC50 data, which are given here for 16 compounds.

pIC50: −log10 of the molar value.

As a reminder, the pIC50 is −log10 of the IC50, conventionally taken in molar units.

The test system of experiment [1] is TLR7 induced IL-6 secretion in human mononuclear cells (PBMC's). As to the kind of experiment: TLR7 induced IL-6 in human PBMC's. Type of experiment: cell-based. The note with it: TLR7 specific ligand 2 uM overnight, IL-6 AlphaLISA. The protocol: TLR7 Induced IL-6 in Human PBMC's
Human PBMC assay was used as one of the functional assaya to monitor the activity of IRAK1 and IRAK4 small molecule inhibitors on TLR7 induced IL-6 secretion in human mononuclear cells (PBMC's). Human PBMCs were prepared from buffy coats (whole blood enriched with leukocytes and platelets) obtained from healthy volunteers used either fresh or frozen are plated in assay media (RPMI+2% P/S/L-glu+10% HI-FBS) and pre-treated with compounds in DMSO/media (range of concentrations from 25 uM to 0.4 nM) or controls (0.25% DMSO) for 30 minutes at 37° C. in assay media. Following pre-treatment with IRAK1 and IRAK4 inhibitors, PBMC's were stimulated with TLR7 specific ligand (2 uM) overnight (16-18 hrs) at 37° C. After incubation supernatant was transferred to 384 well PE AlphaPlate-384 (6005350) and IL-6 is quantified using Perkin Elmer IL-6 Alpha LISA kit (AL223C). Plates were read on an Envision® plate reader with Alpha Technology®.

For experiment [2], the target named is T1, IRAK1 (Homo sapiens, UniProt P51617).
T1 construct: His-TEV-IRAK1 (194-712); His (N); TEV cleavage site (N)
Briefly: IRAK1 enzymatic assay (ADP-Glo luminescence). Type of experiment: biochemical. The note with it: human recombinant His-TEV-IRAK1 (194-712), ATP 1 μM; read-out: IRAK 1 IC50. As to the method:
IRAK1 is a human purified recombinant enzyme (His-TEV-IRAK1 (194-712))
In this assay, IRAK1 hydrolyses ATP and autophosphorylates. Measurement of IRAK-1 inhibition is performed in 384-well format based on luminescence assay (ADP-Glo™ Kinase Assay from Promega). Purified human recombinant IRAK1 ([…]) and serial diluted compounds in DMSO (range of concentration from 10 μM to 0.5 nM) or controls (1% DMSO) are incubated for 15 minutes at RT in assay buffer containing 50 mM Hepes pH 7.0, Fatty acid-free BSA 0.1%, Dithiothreitol (DTT) 2 mM, MgCl2 10 mM, EGTA 0.5 mM, Triton X-100 0.01%. The kinase reaction is then initiated by the addition of ATP at a concentration of 1 μM. After 2 hours of incubation at RT, the reaction is stopped and the unconsumed ATP depleted by the addition of ADP-Glo™ Reagent according to supplier instructions. After 40 minutes of incubation at RT, the Kinase Detection Reagent is then added to the assay plate according to supplier instructions. After 20 minutes of incubation at RT, the luminescence signal is measured with a luminometer (PerkinElmer Envision or equivalent reader).
Background: In ADP-Glo the light output rises with the ADP produced.

The target in experiment [3] is T2, IRAK4 (Homo sapiens, UniProt Q9NWZ3).
T2 construct: His-TEV-IRAK4 (1-460); His (N); TEV cleavage site (N)
T2 sequence (Q9NWZ3 1-460): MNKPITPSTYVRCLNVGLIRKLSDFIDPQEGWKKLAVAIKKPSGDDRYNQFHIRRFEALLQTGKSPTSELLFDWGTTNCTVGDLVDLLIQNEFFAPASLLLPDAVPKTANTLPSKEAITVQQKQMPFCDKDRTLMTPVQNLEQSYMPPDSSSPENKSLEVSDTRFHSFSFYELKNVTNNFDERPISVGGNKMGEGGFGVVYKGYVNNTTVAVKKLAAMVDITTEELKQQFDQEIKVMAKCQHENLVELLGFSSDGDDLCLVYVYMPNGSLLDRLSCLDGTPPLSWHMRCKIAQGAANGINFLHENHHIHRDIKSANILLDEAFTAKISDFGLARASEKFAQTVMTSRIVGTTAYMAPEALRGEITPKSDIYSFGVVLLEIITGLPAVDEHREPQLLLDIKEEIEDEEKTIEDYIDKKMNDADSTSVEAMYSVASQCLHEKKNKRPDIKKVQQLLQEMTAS
As to the kind of experiment: IRAK4 enzymatic assay (ADP-Glo luminescence). Type of experiment: biochemical. The note with it: human recombinant His-TEV-IRAK4 (1-460), STK1-biotin peptide substrate. As to the method:
IRAK4 is a human purified recombinant enzyme (His-TEV-IRAK4 (1-460)).
In this assay, IRAK4 hydrolyses ATP, autophosphorylates and phosphorylates a Serine/Threonine generic peptidic substrate (STK: 61ST1BLC from CisBio International). Measurement of IRAK-4 inhibition is performed in 384-well format based on a luminescence assay (ADP-Glo™ Kinase Assay from Promega). Purified human recombinant IRAK4 ([…]) and serial diluted compounds in DMSO (range of concentration from 10 μM to 0.5 nM) or controls (1% DMSO) are incubated for 15 minutes at RT in assay buffer containing 50 mM Hepes pH 7.0, Fatty acid-free BSA 0.1%, Dithiothreitol (DTT) 2 mM, MgCl2 10 mM, EGTA 0.5 mM, Triton X-100 0.01%, MnCl2 5 mM. The kinase reaction is then initiated by the addition of ATP ([…]) and the peptidic substrate STK1-biotin peptide (300 nM). After 2 hours of incubation at RT, the reaction is stopped and the unconsumed ATP depleted by the addition of ADP-Glo™ Reagent according to supplier instructions. After 40 minutes of incubation at RT, the Kinase Detection Reagent is then added to the assay plate according to supplier instructions. After 20 minutes of incubation at RT, the luminescence signal is measured with a plate-reading luminometer (PerkinElmer Envision or equivalent reader).

T1 sequence (P51617 194-712): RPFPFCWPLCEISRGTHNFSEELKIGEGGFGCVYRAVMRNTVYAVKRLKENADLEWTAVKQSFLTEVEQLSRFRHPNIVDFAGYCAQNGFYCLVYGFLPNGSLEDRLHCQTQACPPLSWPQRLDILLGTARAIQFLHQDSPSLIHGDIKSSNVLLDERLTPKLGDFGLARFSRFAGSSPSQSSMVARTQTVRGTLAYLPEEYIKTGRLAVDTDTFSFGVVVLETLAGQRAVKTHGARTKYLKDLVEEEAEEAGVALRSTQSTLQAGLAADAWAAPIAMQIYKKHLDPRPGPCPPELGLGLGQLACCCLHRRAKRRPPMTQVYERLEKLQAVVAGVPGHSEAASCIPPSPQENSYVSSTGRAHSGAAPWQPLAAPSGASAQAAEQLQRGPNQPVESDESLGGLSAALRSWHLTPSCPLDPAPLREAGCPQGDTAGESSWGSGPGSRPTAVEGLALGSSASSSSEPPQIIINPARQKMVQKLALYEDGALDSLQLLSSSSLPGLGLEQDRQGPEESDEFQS

Regarding `CC(=O)N1CCC(c2ccc3c(c2)[nH]/c(=N\C(=O)c2cccc(C(F)(F)F)c2)n3CCCO)C1` (stereo not drawn) [Compound 12, (E)-N-(5-(1-acetylpyrrolidin-3-yl)-1-(3-hydroxypropyl)-1H-benzo[d]imidazol-2(3H)-ylidene)-3-(trifluoromethyl)benzamide], the pIC50 in experiment [1] (Homo sapiens, PBMC) is 6.00 to 7.00; in experiment [2] it was 6.00 to 7.00; in experiment [3], no less than 7.00.
Consider `CN1CC[C@H](c2ccc3c(c2)nc(NC(=O)c2cccc(C(F)(F)F)c2)n3CCCO)C1=O` [Compound 23b, N-[1-(3-hydroxypropyl)-5-[(3R)-1-methyl-2-oxopyrrolidin-3-yl]-1H-1,3-benzodiazol-2-yl]-3-(trifluoromethyl) benzamide], for which the pIC50 in experiment [1] (Homo sapiens, PBMC) is 6.00 to 7.00; in experiment [2], 6.00 to 7.00; in experiment [3], no less than 7.00.
For `CN1CC(c2ccc3c(c2)nc(NC(=O)c2cccc(C(F)F)c2)n3CCCO)C(C)(C)C1=O` (single isomer, unassigned) [Compound 27b], the pIC50 in experiment [1] was 6.00 to 7.00; in experiment [2], 6.00 to 7.00; in experiment [3], no less than 7.00.
For `CN1CC[C@@](C)(c2ccc3c(c2)nc(NC(=O)c2cccc(C(F)F)c2)n3CCCO)C1=O` [Compound 30b, N-{5-[(3S)-1,3-dimethyl-2-oxopyrrolidin-3-yl]-1-(3-hydroxypropyl)-1H-1,3-benzodiazol-2-yl}-3-(diifluoromethyl)benzamide], the pIC50 is 5.00 to 6.00 in experiment [1] (Homo sapiens, PBMC); 6.00 to 7.00 in experiment [2]; no less than 7.00 in experiment [3].
On the same counts, the results for `CN1CCC[C@H](c2ccc3c(c2)[nH]/c(=N\C(=O)c2cccc(C(F)F)c2)n3C[C@@](C)(F)CO)C1=O` [Compound 3a, 3-(difluoromethyl)-N-[(2E)-1-[(2R)-2-fluoro-3-hydroxy-2-methylpropyl]-5-[(3R)-1-methyl-2-oxopiperidin-3-yl]-2,3-dihydro-1H-1,3-benzodiazol-2-ylidene]benzamide] are 6.00 to 7.00, 5.00 to 6.00 and no less than 7.00.
The matching figures for `CN1C(=O)CC[C@@]1(C)c1ccc2c(c1)nc(NC(=O)c1cccc(C(F)F)c1)n2CCCO` [Compound 31b, 3-(difluoromethyl)-N-{5-[(2S)-1,2-dimethyl-5-oxopyrrolidin-2-yl]-1-(3-hydroxypropyl)-1H-1,3-benzodiazol-2-yl}benzamide]: 5.00 to 6.00, 5.00 to 6.00 and no less than 7.00.
On the same counts, the results for `CN1CCC(c2ccc3c(c2)[nH]/c(=N\C(=O)c2cccc(C(F)(F)F)c2)n3CCC(O)CO)C1=O` (stereo not drawn) [Compound 21, N-[1-(3,4-Dihydroxy-butyl)-5-(1-methyl-2-oxo-pyrrolidin-3-yl)-1,3-dihydro-benzoimidazol-(2E)-ylidene]-3-trifluoromethyl-benzamide] are no less than 7.00, 6.00 to 7.00 and no less than 7.00.
In the case of `CN1CCCC(c2ccc3c(c2)[nH]/c(=N\C(=O)c2cccc(C(F)(F)F)c2)n3CCCO)C1=O` (stereo not drawn) [Compound 1, (E)-N-(1-(3-hydroxypropyl)-5-(1-methyl-2-oxopiperidin-3-yl)-1H-benzo[d]imidazol-2(3H)-ylidene)-3-(trifluoromethyl)benzamide], the pIC50 in experiment [1] (Homo sapiens, PBMC) is no less than 7.00; in experiment [2] it was no less than 7.00; in experiment [3], no less than 7.00.
For `CN1CCC(c2ccc3c(c2)[nH]/c(=N\C(=O)c2cccc(C(F)(F)F)c2)n3CC(O)CO)C1=O` (stereo not drawn) [Compound 20, N-[1-(2,3-Dihydroxy-propyl)-5-(1-methyl-2-oxo-pyrrolidin-3-yl)-1,3-dihydro-benzoimidazol-(2E)-ylidene]-3-trifluoromethyl-benzamide], the pIC50 in experiment [1] (Homo sapiens, PBMC) was 6.00 to 7.00; in experiment [2], 6.00 to 7.00; in experiment [3], no less than 7.00.
With `CN1CCCC(c2ccc3c(c2)[nH]/c(=N\C(=O)c2cccc(C(F)F)c2)n3C[C@@](C)(F)CO)C1=O` (stereo partly drawn) [Compound 2b, (E)-3-(difluoromethyl)-N-(1-((R)-2-fluoro-3-hydroxy-2-methylpropyl)-5-(1-methyl-2-oxopiperidin-3-yl)-1H-benzo[d]imidazol-2(3H)-ylidene)benzamide], the pIC50 in experiment [1] (Homo sapiens, PBMC) is no less than 7.00; in experiment [2] it was 6.00 to 7.00; in experiment [3], no less than 7.00.
In the case of `CN1CCC[C@@H](c2ccc3c(c2)[nH]/c(=N\C(=O)c2cccc(C(F)F)c2)n3C[C@@](C)(F)CO)C1=O` [Compound 3d, 3-(difluoromethyl)-N-[(2E)-1-[(2R)-2-fluoro-3-hydroxy-2-methylpropyl]-5-[(3S)-1-methyl-2-oxopiperidin-3-yl]-2,3-dihydro-1H-1,3-benzodiazol-2-ylidene]benzamide], the pIC50 is no less than 7.00 in experiment [1] (Homo sapiens, PBMC); no less than 7.00 in experiment [2]; no less than 7.00 in experiment [3].
`CN1CCC(c2ccc3c(c2)nc(NC(=O)c2cccc(C(F)(F)F)c2)n3CCCO)C1=O` (stereo not drawn) [Compound 23, N-[1-(3-hydroxypropyl)-5-(1-methyl-2-oxopyrrolidin-3-yl)-1H-1,3-benzodiazol-2-yl]-3-(trifluoromethyl)benzamide]: the pIC50 in experiment [1] (Homo sapiens, PBMC) is no less than 7.00; in experiment [2], 6.00 to 7.00; in experiment [3] it was no less than 7.00.
Regarding `Cn1cncc(-c2ccc3c(c2)[nH]/c(=N\C(=O)c2cccc(C(F)(F)F)c2)n3CCCO)c1=O` [Compound 5, (E)-N-(1-(3-hydroxypropyl)-5-(1-methyl-6-oxo-1,6-dihydropyrimidin-5-yl)-1H-benzo[d]imidazol-2(3H)-ylidene)-3-(trifluoromethyl)benzamide], the pIC50 is 6.00 to 7.00 in experiment [1] (Homo sapiens, PBMC); 6.00 to 7.00 in experiment [2]; no less than 7.00 in experiment [3].
For `CN1CCC(c2ccc3c(c2)[nH]/c(=N\C(=O)c2cccc(C(F)(F)F)c2)n3CCC(O)CO)C1=O` (single isomer, unassigned) [Compound 21a], the negative-log IC50 (pIC50) in experiment [1] (Homo sapiens, PBMC) was 6.00 to 7.00; in experiment [2] it was 6.00 to 7.00; in experiment [3], no less than 7.00.
In the case of `C=CCCn1/c(=N/C(=O)c2cccc(C(F)(F)F)c2)[nH]c2cc(C3CCCN(C)C3=O)ccc21` (stereo not drawn) [Compound 18, N-[1-But-3-enyl-5-(1-methyl-2-oxo-piperidin-3-yl)-1,3-dihydro-benzoimidazol-(2E)-ylidene]-3-trifluoromethyl-benzamide], the pIC50 in experiment [1] (Homo sapiens, PBMC) is 6.00 to 7.00; in experiment [2], 6.00 to 7.00; in experiment [3] it was no less than 7.00.
In the case of `CN1CCC[C@@H](c2ccc3c(c2)[nH]/c(=N\C(=O)c2cccc(C(F)(F)F)c2)n3CCCO)C1=O` [Compound 1a, (S,E)-N-(1-(3-hydroxypropyl)-5-(1-methyl-2-oxopiperidin-3-yl)-1H-benzo[d]imidazol-2(3H)-ylidene)-3-(trifluoromethyl)benzamide], the pIC50 in experiment [1] (Homo sapiens, PBMC) is no less than 7.00; in experiment [2] it was no less than 7.00; in experiment [3] it was no less than 7.00.
